According to patent US20150231077A1, “AMINE PASSIVATED NANOPARTICLES FOR CANCER TREATMENT AND IMAGING” (THE CLEVELAND CLINIC FOUNDATION, priority 2014, published 2015):
“Also recorded” adds a separate entry of the source.

test system: not listed separately; assay: Formation and TEM size of amine-passivated Au nanoparticles; type: physicochemical; details: size of the Au nanoparticle formed with the named amine compound as ligand, same synthesis conditions
Description: In a typical synthesis of water soluble nanoparticles Au:MTX, 5 μmol of HAuCl4 and 25 μmol of MTX were dispersed with brief sonication in 2 mL methanol in a tri-neck 15 mL flask on ice water (0° C.) bath under Ar purge. After 1 hour of stirring at 700 rpm, 0.5 mL of freshly prepared 0.11 M NaBH4 on ice was added drop-wise at 1200 rpm. After ˜1 hour, stirring speed was reduced to 700 rpm and kept for additional ˜30 minutes.
The reacted solution was centrifuged at 4° C. at 16,100×g for 15 minutes twice, with the addition of 4:1 (volume) mixture of methanol and water, and ethanol respectively. This set of two step centrifugation was repeated at least 3 times, and then the precipitate was re-dispersed in water to obtain aqueous solutions. The aqueous solution was further purified using 3 k ultra centrifugal filter (Millipore, Billerica, Mass.). […]

| Compound | nanoparticle (formation of monolayer-protected Au nanoparticles) |
| --- | --- |
| COC(=O)CCC(NC(=O)c1ccc(N(C)Cc2cnc3nc(N)nc(N)c3n2)cc1)C(=O)OC (stereo not drawn) [methotrexate dimethyl ester] | 2.2 ± 0.6 nm |
| Nc1ccn([C@@H]2O[C@H](COP(=O)(O)OP(=O)(O)O)[C@@H](O)[C@H]2O)c(=O)n1 [cytidine diphosphate] | 2.5 ± 0.8 nm |
| Cc1cc2nc3c(=O)[nH]c(=O)nc-3n(C[C@H](O)[C@H](O)[C@H](O)COP(=O)(O)OP(=O)(O)OC[C@H]3O[C@@H](n4cnc5c(N)ncnc54)[C@H](O)[C@@H]3O)c2cc1C [flavin adenine dinucleotide (FAD), flavin adenine dinucleotide] | 4.2 ± 1.6 nm |
| Nc1ncnc2c1ncn2[C@@H]1O[C@H](COP(=O)(O)OP(=O)(O)O)[C@@H](O)[C@H]1O [adenosine diphosphate] | 2.3 ± 0.7 nm |
| CSCC[C@H](N)C(=O)O [methionine] | did not form |
| Cc1ncc(C[n+]2csc(CCO)c2C)c(N)n1 [thiamine] | did not form |
| Nc1ncnc2c1ncn2[C@@H]1O[C@H](COP(=O)(O)OP(=O)(O)OP(=O)(O)O)[C@@H](O)[C@H]1O [adenosine triphosphate] | 2.1 ± 0.7 nm |
| Cc1ncc(C[n+]2csc(CCOP(=O)(O)OP(=O)(O)O)c2C)c(N)n1 [thyamine pyrophosphate] | 3.1 ± 1.3 nm |
| COc1cccc2c1C(=O)c1c(O)c3c(c(O)c1C2=O)C[C@@](O)(C(=O)CO)C[C@@H]3O[C@H]1C[C@H](N)[C@H](O)[C@H](C)O1 [doxorubicin, reference compound] | 3.3 ± 1.2 nm |
| Nc1nc2ncc(CNc3ccc(C(=O)N[C@@H](CCC(=O)O)C(=O)O)cc3)nc2c(=O)[nH]1 [folic acid] | 2.6 ± 1.1 nm |
| [H]/N=C(/N)N[C@H]1[C@H](O)[C@@H](O)[C@H](O[C@@H]2O[C@@H](C)[C@](O)(C=O)[C@H]2O[C@@H]2O[C@@H](CO)[C@H](O)[C@@H](O)[C@@H]2NC)[C@@H](N/C(N)=N\[H])[C@@H]1O [streptomycin, reference compound] | 2.5 ± 1.2 nm |
| Nc1ccn([C@@H]2O[C@H](COP(=O)(O)O)[C@@H](O)[C@H]2O)c(=O)n1 [cytidine monophosphate] | 4.5 ± 2.8 nm |
| NCCc1ccc(O)c(O)c1 [dopamine, reference compound] | did not form |
| CN(Cc1cnc2nc(N)nc(N)c2n1)c1ccc(C(=O)N[C@@H](CCC(=O)O)C(=O)O)cc1 [MTX, methotrexate] | 2.6 ± 0.7 nm |
| NCCCC[C@H](N)C(=O)O [lysine] | did not form |
| Nc1ccn([C@@H]2O[C@H](COP(=O)(O)OP(=O)(O)OP(=O)(O)O)[C@@H](O)[C@H]2O)c(=O)n1 [cytidine triphosphate] | 2.6 ± 0.9 nm |

The remaining lines, values ahead:

| nanoparticle (formation of monolayer-protected Au nanoparticles) | Compound |
| --- | --- |
| did not form | Nc1ncnc2c1ncn2[C@@H]1O[C@H](CO)[C@@H](O)[C@H]1O [adenosine] |
| 2.7 ± 1.6 nm | Nc1nc2c(ncn2[C@@H]2O[C@H](CO)[C@@H](O)[C@H]2O)c(=O)[nH]1 [guanosine] |
| did not form | Nc1ncnc2c1ncn2[C@H]1C[C@H](O)[C@@H](CO)O1 [deoxyadenosine] |
| 2.3 ± 0.7 nm | Nc1nc2c(ncn2[C@@H]2O[C@H](COP(=O)(O)OP(=O)(O)OP(=O)(O)O)[C@@H](O)[C@H]2O)c(=O)[nH]1 [guanosine triphosphate] |
| did not form | Nc1ccn([C@H]2C[C@H](O)[C@@H](CO)O2)c(=O)n1 [deoxycytidine] |
| did not form | Nc1ncnc2c1ncn2[C@@H]1O[C@H](COP(=O)(O)O)[C@@H](O)[C@H]1O [adenosine monophosphate] |
| did not form | Nc1nc2c(ncn2[C@H]2C[C@H](O)[C@@H](CO)O2)c(=O)[nH]1 [deoxyguanosine] |
| 2.4 ± 1.0 nm | Nc1nc2c(ncn2[C@@H]2O[C@H](COP(=O)(O)OP(=O)(O)O)[C@@H](O)[C@H]2O)c(=O)[nH]1 [guanosine diphosphate] |
| 2.6 ± 1.0 nm | Nc1nc2c(ncn2[C@@H]2O[C@H](COP(=O)(O)O)[C@@H](O)[C@H]2O)c(=O)[nH]1 [guanosine monophosphate] |

test system: human AML cell line THP-1; assay: THP-1 growth curves (cell density and viability); type: cell-based; details: 1, 2 and 5 nM
Description: In order to evaluate the efficacy of Au:MTX in vitro, a human AML cell line THP-1 and human normal hematopoietic stem/progenitor cells (HSPCs) were used. HSPCs were isolated from umbilical cord blood via a CD34+ magnetic cell sorting (CD34 MicroBead Kit #130-046-702, Miltenyl Biotec, Auburn, Calif.). […] Cell density and viability were measured every 24 hours using the cell viability analyzer. […]
The inventors characterized Au:MTX as drug delivery vehicles and evaluated in vitro therapeutic effects. Au:MTX was purified via sets of centrifugal precipitations, and the Au-to-MTX molar ratio (drug loading onto Au nanoparticle) was measured by elemental analyses (carbon-hydrogen-nitrogen analysis, or CHN; and inductively coupled plasma mass spectrometry, or ICP-MS). […] Au-to-MTX molar ratio was determined as [Au]:[MTX]=9.8:1, i.e. one nanoparticle on average carried ˜75 MTX molecules (assuming ˜1.44 Å as atomic radius of Au and uniform surface coverage, as illustrated in FIG. 1(c)). […] Drug delivery by Au:MTX was evaluated using a human AML cell line THP-1. […] Au:FOL, with the diameter 2.6±1.1 nm measured by TEM, is structurally similar to Au:MTX and was therefore used as an “Au nanoparticle without active drug” control. […]

| Compound | THP-1 cell growth |
| --- | --- |
| CN(Cc1cnc2nc(N)nc(N)c2n1)c1ccc(C(=O)N[C@@H](CCC(=O)O)C(=O)O)cc1 [MTX, methotrexate] | dose-dependent THP-1 growth suppression |

test system: human normal hematopoietic stem/progenitor cells (HSPCs); assay: Normal HSPC growth curves; type: cell-based; details: 1, 2 and 5 nM
Description: In order to evaluate the efficacy of Au:MTX in vitro, a human AML cell line THP-1 and human normal hematopoietic stem/progenitor cells (HSPCs) were used. HSPCs were isolated from umbilical cord blood via a CD34+ magnetic cell sorting (CD34 MicroBead Kit #130-046-702, Miltenyl Biotec, Auburn, Calif.). THP-1 cells were cultured in Roswell Park Memorial Institute 1640 (RPMI, Life Technologies, Carlsbad, Calif.) with 10% fetal bovine serum (FBS, Life Technologies), and HSPCs were cultured in Iscove's Modified Dulbecco's Medium (IMDM, Life Technologies) with 10% FBS and cytokines (10 ng/mL of SCF, TPO, and FLT3; 5 ng/mL of IL-3 and IL-6, PeproTech, Rockey Hill, N.J.), respectively, using 24-well cell culture plates with 0.7 mL of culture media per well (at 37° C. with 5% CO2 and >95% humidity). Cell viability was confirmed to be >95% using cell viability analyzer (Vi-Cell, Beckman Coulter, Brea, Calif.) immediately before the experiments. Then the cells were treated with phosphate buffer saline (PBS, Life Technologies), MTX, aqueous solutions of equimolar Au:MTX, and/or equimolar Au:FOL (folic acid-passivated Au nanoparticles). Cell cultures were split two-fold after 72 hours by replenishing each well with fresh media. Cell density and viability were measured every 24 hours using the cell viability analyzer. […]

| Compound | HSPC growth |
| --- | --- |
| CN(Cc1cnc2nc(N)nc(N)c2n1)c1ccc(C(=O)N[C@@H](CCC(=O)O)C(=O)O)cc1 [MTX, methotrexate] | not significantly affected; also recorded: does not significantly affect |
